Test results reported in patent publication US12396458B2, “Fused ring substituted aromatic compound and preparation method therefor, herbicidal composition, and use thereof” (Qingdao Kingagroot Chemical Compound Co., Ltd., priority 2020, dated 2025).

Legend:
Test in all cases: Weeding effect in post-emergence stage (greenhouse pot test)
Format in all cases: in vivo
[1] = system: Capsella bursa-pastoris; settings: dose 15 g a.i./ha, 3 weeks after application, fresh weight control rate
Source text: (§1) The activity level criteria for plant damage (i.e., growth control rate) are as follows:
(§2) Level 5: growth control rate is above 85%; • Level 4: growth control rate is greater than or equal to 60% and less than 85%; • Level 3: growth control rate is greater than or equal to 40% and less than 60%; • Level 2: growth control rate is greater than or equal to 20% and less than 40%; • Level 1: growth control rate is greater than or equal to 5% and less than 20%; • Level 0: growth control rate is less than 5%.
(§3) The above growth control rates are fresh weight control rates.
(§4) Experiment on weeding effect in post-emergence stage:
(§5) Monocotyledonous and dicotyledonous weed seeds (Descurainia sophia, Capsella bursa-pastoris, Abutilon theophrasti, Galium aparine, Stellaria media, Lithospermum arvense, Rorippa indica, Alopecurus aequalis, Alopecurus japonicus, Eleusine indica, Beckmannia syzigachne, Sclerochloa dura, Phleum paniculatum, Veronica didyma Tenore, Bromus japonicus, Aegilops tauschii, Phalaris arundinacea, Amaranthus retrojlexus, Chenopodiaceae, Commelina communis, Sonchus arvensis, convolvulus arvensis, Cirsium setosum, Solanum nigrum, Acalypha australis, Digitaria sanguinalis, Echinochloa crusgalli, Setaria viridis, Setaria glauca, Leptochloa chinensis, Monochoria vaginalis, Sagittaria trifolia, Scirpus juncoides, Cyperus rotundus, Cyperus iria, Cyperus difformis, Fimbristylis, Portulaca oleracea, Xanthium sibiricum, Pharbitis nil, Conyza japonica, etc.) and major crop seeds (wheat, corn, rice, soybean, cotton, oilseed rape, millet, sorghum, potato, sesame, ricinus, etc.) were placed in plastic pots filled with soil, then covered with 0.5-2 cm of soil, allowed to grow in a good greenhouse environment. After 2 weeks of sowing, the test plants were treated in the 2-3 leaf stage. The tested compounds of the present invention were respectively dissolved in acetone, then added with Tween 80 and 1.5 liter/ha of emulsifiable concentrate of methyl oleate as synergist, diluted with a certain amount of water to obtain a solution with a certain concentration, and sprayed with a spray tower onto the plants. After the application, the plants were cultured for 3 weeks in the greenhouse, and then the experimental results of the weeding were counted. The doses of the used compounds were 500, 250, 125, 60, 15, 7.5 g a.i./ha, and the averages were obtained by repeating for three times.

[2] = system: Alopecurus japonicus; settings: dose 15 g a.i./ha, 3 weeks after application, fresh weight control rate
Source text: as §1, §2, §3, §4, §5

[3] = system: Conyza japonica; settings: post-emergence, dose 15 g a.i./ha, 3 weeks after application, fresh weight control rate
Source text: as §1, §2, §3, §4, §5

[4] = system: Beckmannia syzigachne; settings: dose 15 g a.i./ha, 3 weeks after application, fresh weight control rate
Source text: as §1, §2, §3, §4, §5

| SMILES | Activity level (growth control rate), Capsella bursa-pastoris [1] | Activity level (growth control rate), Alopecurus japonicus [2] | Activity level (growth control rate), Conyza japonica [3] | Activity level (growth control rate), Beckmannia syzigachne [4] |
| --- | --- | --- | --- | --- |
| COC(=O)C12CCCC1C(c1cc(N3C(=O)C4=C(CCCC4)C3=O)c(F)cc1Cl)=NO2 (centres unmarked) [Compound 542] | 4 (Level 4: growth control rate is greater than or equal to 60% and less than 85%) | 5 (Level 5: growth control rate is above 85%) | 4 (Level 4: growth control rate is greater than or equal to 60% and less than 85%) | 4 (Level 4: growth control rate is greater than or equal to 60% and less than 85%) |
| COC(=O)C12CCCC1C(c1cc(-c3ncc(C(F)(F)F)cc3Cl)c(F)cc1Cl)=NO2 (centres unmarked) [Compound 585] | 5 (Level 5: growth control rate is above 85%) | 5 (Level 5: growth control rate is above 85%) | 4 (Level 4: growth control rate is greater than or equal to 60% and less than 85%) | 5 (Level 5: growth control rate is above 85%) |
| COC(=O)C12CCCC1C(c1nc(-n3c(=O)cc(C(F)(F)F)n(C)c3=O)c(F)cc1Cl)=NO2 (centres unmarked) [Compound 521] | 5 (Level 5: growth control rate is above 85%) | 5 (Level 5: growth control rate is above 85%) | 4 (Level 4: growth control rate is greater than or equal to 60% and less than 85%) | 5 (Level 5: growth control rate is above 85%) |
| C=CCOC(=O)C12CCCC1C(c1cc(-n3c(=O)cc(C(F)(F)F)n(C)c3=O)c(F)cc1Cl)=NO2 (centres unmarked) [Compound 222] | 5 (Level 5: growth control rate is above 85%) | 5 (Level 5: growth control rate is above 85%) | 4 (Level 4: growth control rate is greater than or equal to 60% and less than 85%) | 5 (Level 5: growth control rate is above 85%) |
| C=CCOC(=O)C12CCCC1C(c1cc(-n3c(=O)n(C)c(=S)n(C)c3=O)c(F)cc1Cl)=NO2 (centres unmarked) [Compound 10] | 5 (Level 5: growth control rate is above 85%) | 5 (Level 5: growth control rate is above 85%) | 4 (Level 4: growth control rate is greater than or equal to 60% and less than 85%) | 5 (Level 5: growth control rate is above 85%) |
| CCOC(=O)C12ON=C(c3cc(-n4c(=O)cc(C(F)(F)F)n(C)c4=O)c(F)cc3Cl)C1CCC2C (centres unmarked) [Compound 476] | 5 (Level 5: growth control rate is above 85%) | 5 (Level 5: growth control rate is above 85%) | 4 (Level 4: growth control rate is greater than or equal to 60% and less than 85%) | 5 (Level 5: growth control rate is above 85%) |
| Cc1cc(C)n(C(=O)C23CCCC2C(c2cc(-n4c(=O)cc(C(F)(F)F)n(C)c4=O)c(F)cc2Cl)=NO3)n1 (centres unmarked) [Compound 333] | 4 (Level 4: growth control rate is greater than or equal to 60% and less than 85%) | 4 (Level 4: growth control rate is greater than or equal to 60% and less than 85%) | 4 (Level 4: growth control rate is greater than or equal to 60% and less than 85%) | 4 (Level 4: growth control rate is greater than or equal to 60% and less than 85%) |
| Cn1c(C(F)(F)F)cc(=O)n(-c2cc(C3=NOC4(C(=O)OCC5CCCO5)CCCC34)c(Cl)cc2F)c1=O (centres unmarked) [Compound 261] | 5 (Level 5: growth control rate is above 85%) | 5 (Level 5: growth control rate is above 85%) | 4 (Level 4: growth control rate is greater than or equal to 60% and less than 85%) | 5 (Level 5: growth control rate is above 85%) |
| CCCOC(=O)C12CCCC1C(c1cc(-n3c(=O)n(C)c(=S)n(C)c3=O)c(F)cc1Cl)=NO2 (centres unmarked) [Compound 4] | 5 (Level 5: growth control rate is above 85%) | 5 (Level 5: growth control rate is above 85%) | 4 (Level 4: growth control rate is greater than or equal to 60% and less than 85%) | 5 (Level 5: growth control rate is above 85%) |
| COC(=O)C12CCCC1C(c1cc(-n3c(=O)cc(C(F)(F)F)n(C)c3=O)c(F)cc1Br)=NO2 (centres unmarked) [Compound 210] | 5 (Level 5: growth control rate is above 85%) | 5 (Level 5: growth control rate is above 85%) | 5 (Level 5: growth control rate is above 85%) | 5 (Level 5: growth control rate is above 85%) |
| CCOC(=O)C12ON=C(c3cc(-n4c(=O)cc(C(F)(F)F)n(C)c4=O)c(F)cc3Cl)C1CCC2Br (centres unmarked) [Compound 474] | 5 (Level 5: growth control rate is above 85%) | 4 (Level 4: growth control rate is greater than or equal to 60% and less than 85%) | 4 (Level 4: growth control rate is greater than or equal to 60% and less than 85%) | 4 (Level 4: growth control rate is greater than or equal to 60% and less than 85%) |
| COC(=O)C12CCC(C)C1C(c1cc(-n3c(=O)cc(C(F)(F)F)n(C)c3=O)c(F)cc1Cl)=NO2 (centres unmarked) [Compound 443] | 5 (Level 5: growth control rate is above 85%) | 5 (Level 5: growth control rate is above 85%) | 4 (Level 4: growth control rate is greater than or equal to 60% and less than 85%) | 5 (Level 5: growth control rate is above 85%) |
| COCCOC(=O)C12CCCC1C(c1cc(-n3c(=O)cc(C(F)(F)F)n(C)c3=O)c(F)cc1Cl)=NO2 (centres unmarked) [Compound 245] | 5 (Level 5: growth control rate is above 85%) | 5 (Level 5: growth control rate is above 85%) | 4 (Level 4: growth control rate is greater than or equal to 60% and less than 85%) | 5 (Level 5: growth control rate is above 85%) |
| COC(=O)C12CCCC1C(c1cc(-n3c(=S)cc(C(F)(F)F)n(C)c3=O)c(F)cc1Cl)=NO2 (centres unmarked) [Compound 498] | 5 (Level 5: growth control rate is above 85%) | 5 (Level 5: growth control rate is above 85%) | 4 (Level 4: growth control rate is greater than or equal to 60% and less than 85%) | 5 (Level 5: growth control rate is above 85%) |
| CC(C)=NOC(=O)C12CCCC1C(c1cc(-n3c(=O)cc(C(F)(F)F)n(C)c3=O)c(F)cc1Cl)=NO2 (centres unmarked) [Compound 278] | 5 (Level 5: growth control rate is above 85%) | 5 (Level 5: growth control rate is above 85%) | 4 (Level 4: growth control rate is greater than or equal to 60% and less than 85%) | 5 (Level 5: growth control rate is above 85%) |
| CCOC(=O)C12CCC(=NOC)C1C(c1cc(-n3c(=O)cc(C(F)(F)F)n(C)c3=O)c(F)cc1Cl)=NO2 (centres unmarked) [Compound 451] | 5 (Level 5: growth control rate is above 85%) | 4 (Level 4: growth control rate is greater than or equal to 60% and less than 85%) | 4 (Level 4: growth control rate is greater than or equal to 60% and less than 85%) | 4 (Level 4: growth control rate is greater than or equal to 60% and less than 85%) |
| Cn1c(C(F)(F)F)cc(=O)n(-c2cc(C3=NOC4(C(=O)O)CCCC34)c(Cl)cc2F)c1=O (centres unmarked) [Compound 213] | 5 (Level 5: growth control rate is above 85%) | 5 (Level 5: growth control rate is above 85%) | 4 (Level 4: growth control rate is greater than or equal to 60% and less than 85%) | 5 (Level 5: growth control rate is above 85%) |
